Laboratory results from patent US20240327374A1, “LENALIDOMIDE PROCESS” (priority 2023, published 2024).

Tests used:
Format in all cases: physicochemical
[1] = Six months stability of crystalline Form SRA: assay / purity by HPLC
Description: (§1) Inventors of the present application performed six months stability for the novel crystalline Form SRA according to the following temperature and relative humidity conditions: […]

[2] = Six months stability of crystalline Form SRA: comparative XRPD pattern (polymorphic stability); conditions: after 6 months under 25° C.±2/65±5% RH and 40° C.±2/75±5% RH
Description: as §1

[3] = Six months stability of crystalline Form SRA: moisture content by KF method
Description: as §1

In the case of `Nc1cccc2c1CN(C1CCC(=O)NC1=O)C2=O` (stereo not shown) [Form SRA, 3-(7-amino-3-oxo-1H-isoindol-2-yl) piperidine-2,6-dione], the “Assay (by HPLC; on anhydrous basis) Between 98.0 to 102.0% w/w” value (from here on “Assay … to 102.0% w/w”) ([1]; A = 25° C.±2/65±5% RH, 1M) is reported as 99.50 % w/w, the “Assay … to 102.0% w/w” value ([1]; A = 25° C.±2/65±5% RH, 2M) is reported as 99.41 % w/w and the “Assay … to 102.0% w/w” value ([1]; A = 25° C.±2/65±5% RH, 3M) is reported as 99.55 % w/w. The “Assay … to 102.0% w/w” value ([1]; A = 25° C.±2/65±5% RH, 6M) was 99.47 % w/w, the “Assay … to 102.0% w/w” value ([1]; A = 25° C.±2/65±5% RH, Initial) was 100.38 % w/w and the “Assay … to 102.0% w/w” value ([1]; B = 40° C.±2/75±5% RH, 1M) was 99.77 % w/w. For the same molecule, the “Assay … to 102.0% w/w” value ([1]; B = 40° C.±2/75±5% RH, 2M) was 99.64 % w/w, the “Assay … to 102.0% w/w” value ([1]; B = 40° C.±2/75±5% RH, 3M) was 100.02 % w/w and the “Assay … to 102.0% w/w” value ([1]; B = 40° C.±2/75±5% RH, 6M) was 99.47 % w/w. For the same molecule, the “Assay … to 102.0% w/w” value ([1]; B = 40° C.±2/75±5% RH, Initial) was 100.38 % w/w, the “HPLC purity retained in the stability study” value ([1]; six months stability study) was “exceeding 99.9 % w/w by HPLC” and the “Crystalline form by comparative XRPD, initial stage vs after stability” value [2] was “crystalline form remains unchanged”. For the same molecule, the “Moisture Content (by KF method) Not more than 0.5% w/w” value ([3]; A = 25° C.±2/65±5% RH, 1M) was 0.22 % w/w, the “Moisture Content (by KF method) Not more than 0.5% w/w” value ([3]; A = 25° C.±2/65±5% RH, 2M) was 0.22 % w/w and the “Moisture Content (by KF method) Not more than 0.5% w/w” value ([3]; A = 25° C.±2/65±5% RH, 3M) was 0.23 % w/w. The “Moisture Content (by KF method) Not more than 0.5% w/w” value ([3]; A = 25° C.±2/65±5% RH, 6M) was 0.23 % w/w, the “Moisture Content (by KF method) Not more than 0.5% w/w” value ([3]; A = 25° C.±2/65±5% RH, Initial) was 0.23 % w/w and the “Moisture Content (by KF method) Not more than 0.5% w/w” value ([3]; B = 40° C.±2/75±5% RH, 1M) was 0.21 % w/w. The “Moisture Content (by KF method) Not more than 0.5% w/w” value ([3]; B = 40° C.±2/75±5% RH, 2M) was 0.22 % w/w, the “Moisture Content (by KF method) Not more than 0.5% w/w” value ([3]; B = 40° C.±2/75±5% RH, 3M) was 0.22 % w/w and the “Moisture Content (by KF method) Not more than 0.5% w/w” value ([3]; B = 40° C.±2/75±5% RH, 6M) was 0.22 % w/w. The “Moisture Content (by KF method) Not more than 0.5% w/w” value ([3]; B = 40° C.±2/75±5% RH, Initial) was 0.23 % w/w.
